Reference: patent US8709740B2, “Control of protein activity using a conducting polymer” (The United States of America, as represented by the …, priority 2005, dated 2014)

How the values were obtained:
[1] = biological target: T1, Drosophila sp. kinesin K401-BCCP-His6 (K401-biotin carboxyl carrier protein-His6) (Drosophila melanogaster, UniProt P17210); experiment: Michaelis-Menten kinetics of kinesin on poly(OH-EDOT) surface from microtubule gliding speeds at varied ATP concentration; assay type: biochemical
T1 construct: motor domain, neck linker and part of the coiled coil) of kinesin-1 heavy chain fused to biotin carboxyl carrier protein (BCCP, from E. coli in the known construct) and a His6 tag; microtubules and ATP present
Excerpt: The protein ensemble (streptavidin, BSA, Drosophila kinesin K401-biotin carboxyl carrier protein (BCCP)-His6 and MTs) was deposited onto the conducting polymer surface (initially doped) using standard flow or droplet deposition methods. Flow cells were assembled using double-sided tape as a spacer creating a channel of approximate dimensions 5 mm×10 mm×0.04 mm. For the non-electrochemical assays, the poly(OH-EDOT)/PET substrate was placed on a glass slide with the conducting polymer layer down. The proteins were introduced using the standard capillary-flow technique. The buffer for all experiments was BRB80 (80 mM Pipes, 2 mM MgCl2, 1 mM EGTA, pH 6.95 with KOH). The flow cells were sequentially filled with a streptavidin solution (Streptomyces avidinii, Sigma-Aldrich, 1.0 mg/mL in BRB80, 10 min deposition time), BSA solution (Sigma-Aldrich, 1.0 mg/mL in BRB80, 10 min deposition time), standard kinesin solution (40 μg/mL kinesin K401-BCCP-His6 with 1 mM ATP in BRB80, 10 min deposition time), and finally a motility buffer with rhodamine-labeled microtubules (1-10 μm in length), containing 1 mM ATP and stabilized with 10 μM Taxol with oxygen scavenging additives (20 mM D-glucose, 20 μg/mL glucose oxidase, 8 μg/mL catalase, 0.2% 2-mercaptoethanol). Flow cells were sealed with immersion oil to prevent evaporation. The assays were performed at room temperature (21° C.).
It has recently been well established that as kinesin hydrolyzes a single ATP molecule, it induces an eight-nanometer movement of a microtubule. Therefore enzyme activity can be indirectly assayed by simply determining the average speed of a large population of microtubules. This was done using fluorescently-labeled microtubules, and their gliding speeds were then carefully measured using confocal microscopy. Microtubules were visualized on the conducting polymer using an Olympus Opelco BX51 fluorescence microscope and their speeds quantified using Metamorph image analysis software (Universal Imaging, Downingtown, Pa.). This assay method was then combined with a transparent electrochemical cell containing a poly(OH-EDOT) support. The poly(OH-EDOT) was ˜80% transparent in the visible range, allowing the microtubules to be easily seen and their speeds measured. […] The surface was then electrochemically doped by applying a bias of […] for 1 minute. The average microtubule speed was measured and found to be 0.40 μm/sec. The resulting ratio in speed differences (dedoped vs. doped surfaces) is 1.55, a striking exact correlation with the ATP hydrolysis ratios on the two surfaces. The surface was then cycled between the two states once more to give an overall cycling history of −1.0 V, +1.0 V, −1.0 V, +1.0 V with corresponding polymer states dedoped, doped, dedoped, doped (FIG. 3). For the second doping cycle the microtubule speeds were 0.63 (dedoped) and 0.40 (doped), giving a speed difference ratio of […].
At this point it was clear that the polymer surface was exerting a direct, reversible effect on the kinesin protein itself. The nature of this influence was examined by treating the charged species in the doped polymer form (the radical cation, or polaron) as an inhibitor, and quantified the enzyme kinetics in terms of Michaelis-Menten parameters. First, the surface concentration of the polarons was calculated using the established value of one polaron per four polymer repeat units for fully doped thiophene-type polymers. […] If one then encloses a kinesin molecule in a cube 30 nm per side and considers the polarons on the 30 nm×30 nm surface region to be distributed in the cube volume, an apparent local polaron concentration ([Iapp]) of 3.89 mM is obtained.
The Michaelis-Menten analysis assumes a kinetic model of the type shown in FIG. 5 (E=enzyme, ES=enzyme-substrate complex, P=product, kcat=catalytic turnover rate constant, Dstep=8 nm, Km=Michaelis constant). The kinetics of most enzymes, including kinesin, is accurately described with this model. […]

[2] = biological target: kinesin; details: comparison value, source not given; read-out: inhibition constant Ki (other inhibitors); cited from earlier work
[3] = substrate ATP, doped vs dedoped surface

T1 sequence (P17210 1-401): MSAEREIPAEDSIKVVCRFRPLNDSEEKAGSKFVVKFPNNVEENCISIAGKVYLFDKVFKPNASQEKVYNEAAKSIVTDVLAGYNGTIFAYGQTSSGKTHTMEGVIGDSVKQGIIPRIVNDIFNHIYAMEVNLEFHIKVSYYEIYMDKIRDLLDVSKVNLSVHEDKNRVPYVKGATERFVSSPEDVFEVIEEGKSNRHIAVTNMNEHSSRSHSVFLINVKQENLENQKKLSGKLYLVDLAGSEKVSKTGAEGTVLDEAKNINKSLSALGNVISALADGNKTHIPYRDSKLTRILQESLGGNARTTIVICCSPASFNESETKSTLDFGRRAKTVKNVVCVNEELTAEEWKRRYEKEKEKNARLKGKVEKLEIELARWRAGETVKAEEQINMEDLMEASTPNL

Compound	Speedmax dedoped ([1]; dedoped poly(OH-EDOT) surface, microtubule speed at infinite ATP concentration, 21° C., BRB80 pH 6.95)	Speedmax doped ([1]; doped poly(OH-EDOT) surface, microtubule speed at infinite ATP concentration, 21° C., BRB80 pH 6.95)	kcat dedoped ([1]; substrate ATP, dedoped poly(OH-EDOT) surface, 8 nm step per ATP hydrolyzed)	kcat doped ([1]; substrate ATP, doped poly(OH-EDOT) surface, 8 nm step per ATP hydrolyzed)	Km app doped lower than Km dedoped [1, 3]	kcat doped lower than kcat dedoped [1, 3]	Ki [2] [mM]
Nc1ncnc2c1ncn2[C@@H]1O[C@H](COP(=O)(O)OP(=O)(O)OP(=O)(O)O)[C@@H](O)[C@H]1O [ATP, adenosine triphosphate]	0.943 μm/s ± 0.05	0.600 μm/s ± 0.03	118 sec^−1 ± 6	75.0 sec^−1 ± 3	ca. 35%	ca. 36%	
Nc1ncnc2c1ncn2[C@@H]1O[C@H](COP(=O)(O)OP(=O)(O)O)[C@@H](O)[C@H]1O [ADP, adenosine diphosphate]							0.048
O=P(O)(O)O [PO4^2−]							9.3
